Data as given in patent US8012956B2, “Tropane compounds” (Exelixis, Inc., priority 2007, dated 2011).

target: HSP90 (Homo sapiens, UniProt P07900); assay: HSP90 inhibition (HSP90 IC50); assay type: biochemical

Row | Compound | IC50 [µM]
1 | COc1cccc(C(=O)NC2CC3CCC(C2)N3c2ccc(C(=O)NCC3CCNC3)cn2)c1C (centres unmarked) | < 0.5
2 | COc1cccc(C(=O)N[C@H]2C[C@H]3CC[C@@H](C2)N3c2ccc(C(=O)NCc3ccc(N4CCN(C)CC4)cc3)cn2)c1C | < 0.5
3 | COc1ccc([C@H](C)NC(=O)c2ccc(N3C4CCC3CC(NC(=O)c3cccc(OC)c3C)C4)nc2)cc1 (some centres unmarked) | < 0.5
4 | COc1cccc(C(=O)NC2CC3CCC(C2)N3c2ccc(C(=O)NC(C)c3ccccc3)cn2)c1C (centres unmarked) | < 0.5
5 | COc1ccc(Nc2cc(C(=O)N[C@H]3C[C@H]4CC[C@@H](C3)N4c3ccc(C(=O)NC4CCCC4)cn3)ccc2C(N)=O)cc1OCCN(C)C | < 0.5
6 | C[C@H](NC(=O)c1ccc(N2C3CCC2CC(NC(=O)c2ccc(C(N)=O)c(Nc4ccncc4)c2)C3)nc1)c1ccc(N2CCN(C)CC2)cc1 (some centres unmarked) | < 0.5
7 | COC(=O)[C@@H](NC(=O)c1ccc(N2C3CCC2CC(NC(=O)c2cccc(OC)c2C)C3)nc1)c1ccc(OC)cc1 (some centres unmarked) | 1 to 2
8 | CC(C)C(=O)c1ccc(N2[C@@H]3CC[C@H]2C[C@@H](NC(=O)c2ccc(C(N)=O)c(NCC4CC4)c2)C3)nc1 | 1 to 2
9 | CCC(CC)Nc1cc(C(=O)N[C@H]2C[C@H]3CC[C@@H](C2)N3c2ccc(C(C)=O)cn2)c(C)cc1C(N)=O | < 0.5
10 | NC(=O)c1ccc(C(=O)N[C@H]2C[C@H]3CC[C@@H](C2)N3c2ccc(C(=O)C3CC3)cn2)cc1NC1CCCC1 | < 0.5
11 | CCC(C)Oc1cc(C(=O)N[C@H]2C[C@H]3CC[C@@H](C2)N3c2ccc(C(=O)C3CC3)cn2)c(C)cc1C(N)=O (some centres unmarked) | < 0.5
12 | 2-((cyclopropylmethyl)amino]-N4-{8- [5-({[(3R)-1-(1-methylethyl)pyrrolidin- 3-yl]amino}carbonyl)pyridin-2-yl]-8- azabicyclo[3.2.1]oct-3-endo- yl}benzene-1,4-dicarboxamide | < 0.5
13 | NC(=O)c1cc(Cl)c(C(=O)N[C@H]2C[C@H]3CC[C@@H](C2)N3c2ccc(C(=O)NCc3ccccc3)cn2)cc1Cl [2,5-dichloro-N-[8-(5-{[(phenylmethyl)amino]carbonyl}pyridin-2-yl)-8-azabicyclo[3.2.1]oct-3-endo-yl]benzene-1,4-dicarboxamide] | < 0.5
14 | Cc1cc(C(=O)NC2CC3CCC(C2)N3c2ccc(C(=O)N[C@@H](C)c3ccc(N4CCN(C)CC4)cc3)cn2)c(C)cc1C(N)=O (stereo partly drawn) [2,5-dimethyl-N-(8-{5-[({(1S)-1-[4-(4-methylpiperazin-1-yl)phenyl]ethyl}amino)carbonyl]pyridin-2-yl}-8-azabicyclo[3.2.1]oct-3-endo-yl)benzene-1,4-dicarboxamide] | < 0.5
15 | Cc1cc(C(=O)N[C@H]2C[C@H]3CC[C@@H](C2)N3c2ccc(C(=O)NC3CN(C)C3)cn2)c(C)cc1C(N)=O [2,5-dimethyl-N-[8-(5-{[(1-methylazetidin-3-yl)amino]carbonyl}pyridin-2-yl)-8-azabicyclo[3.2.1]oct-3-endo-yl]benzene-1,4-dicarboxamide] | < 0.5
16 | Cc1cc(C(=O)N[C@H]2C[C@H]3CC[C@@H](C2)N3c2ccc(C(=O)NC3CCN(C)CC3)cn2)c(C)cc1C(N)=O [2,5-dimethyl-N-[8-(5-{[(1-methylpiperidin-4-yl)amino]carbonyl}pyridin-2-yl)-8-azabicyclo[3.2.1]oct-3-endo-yl]benzene-1,4-dicarboxamide] | 0.5 to 0.999
17 | Cc1cc(C(=O)N[C@H]2C[C@H]3CC[C@@H](C2)N3c2ccc(C(=O)NCc3ccccc3)cn2)c(C)cc1C(N)=O [2,5-dimethyl-N-[8-(5-{[(phenylmethyl)amino]carbonyl}pyridin-2-yl)-8-azabicyclo[3.2.1]oct-3-endo-yl]benzene-1,4-dicarboxamide] | < 0.5
18 | Cc1cc(C(=O)N[C@H]2C[C@H]3CC[C@@H](C2)N3c2ccc(C(=O)NC3CN(C(C)C)C3)cn2)c(C)cc1C(N)=O [2,5-dimethyl-N-{8-[5-({[1-(1-methylethyl)azetidin-3-yl]amino}carbonyl)pyridin-2-yl]-8-azabicyclo[3.2.1]oct-3-endo-yl}benzene-1,4-dicarboxamide] | < 0.5

Row | Compound | IC50 [µM]
19 | Cc1cc(C(=O)NC2CC3CCC(C2)N3c2ccc(C(=O)N[C@@H]3CCCN(C(C)C)C3)cn2)c(C)cc1C(N)=O (stereo partly drawn) [2,5-dimethyl-N-{8-[5-({[(3R)-1-(1-methylethyl)piperidin-3-yl]amino}carbonyl)pyridin-2-yl]-8-azabicyclo[3.2.1]oct-3-endo-yl}benzene-1,4-dicarboxamide] | < 0.5
20 | Cc1cc(C(=O)N[C@H]2C[C@H]3CC[C@@H](C2)N3c2ccc(C(=O)N[C@@H]3CCN(C(C)C)C3)cn2)c(C)cc1C(N)=O [2,5-dimethyl-N-{8-[5-({[(3R)-1-(1-methylethyl)pyrrolidin-3-yl]amino}carbonyl)pyridin-2-yl]-8-azabicyclo[3.2.1]oct-3-endo-yl}benzene-1,4-dicarboxamide] | < 0.5
21 | Cc1cc(C(=O)NC2CC3CCC(C2)N3c2ccc(C(=O)N[C@@H]3CCCN(C)C3)cn2)c(C)cc1C(N)=O (stereo partly drawn) [2,5-dimethyl-N-{8-[5-({[(3R)-1-methylpiperidin-3-yl]amino}carbonyl)pyridin-2-yl]-8-azabicyclo[3.2.1]oct-3-endo-yl}benzene-1,4-dicarboxamide] | < 0.5
22 | Cc1cc(C(=O)NC2CC3CCC(C2)N3c2ccc(C(=O)N[C@@H]3CCN(C)C3)cn2)c(C)cc1C(N)=O (stereo partly drawn) [2,5-dimethyl-N-{8-[5-({[(3R)-1-methylpyrrolidin-3-yl]amino}carbonyl)pyridin-2-yl]-8-azabicyclo[3.2.1]oct-3-endo-yl}benzene-1,4-dicarboxamide] | 0.5 to 0.999
23 | Cc1cc(C(=O)NC2CC3CCC(C2)N3c2ccc(C(=O)N[C@H]3CCCN(C(C)C)C3)cn2)c(C)cc1C(N)=O (stereo partly drawn) [2,5-dimethyl-N-{8-[5-({[(3S)-1-(1-methylethyl)piperidin-3-yl]amino}carbonyl)pyridin-2-yl]-8-azabacyclo[3.2.1]oct-3-endo-yl}benzene-1,4-dicarboxamide] | 0.5 to 0.999
24 | Cc1cc(C(=O)N[C@H]2C[C@H]3CC[C@@H](C2)N3c2ccc(C(=O)N[C@H]3CCN(C(C)C)C3)cn2)c(C)cc1C(N)=O [2,5-dimethyl-N-{8-[5-({[(3S)-1-(1-methylethyl)pyrrolidin-3-yl]amino}carbonyl)pyridin-2-yl]-8-azabicyclo[3.2.1]oct-3-endo-yl}benzene-1,4-dicarboxamide] | < 0.5
25 | Cc1cc(C(=O)NC2CC3CCC(C2)N3c2ccc(C(=O)N[C@H]3CCCN(C)C3)cn2)c(C)cc1C(N)=O (stereo partly drawn) [2,5-dimethyl-N-{8-[5-({[(3S)-1-methylpiperidin-3-yl]amino}carbonyl)pyridin-2-yl]-8-azabicyclo[3.2.1]oct-3-endo-yl}benzene-1,4-dicarboxamide] | < 0.5
26 | Cc1cc(C(=O)NC2CC3CCC(C2)N3c2ccc(C(=O)N[C@H]3CCN(C)C3)cn2)c(C)cc1C(N)=O (stereo partly drawn) [2,5-dimethyl-N-{8-[5-({[(3S)-1-methylpyrrolidin-3-yl]amino}carbonyl)pyridin-2-yl]-8-azabicyclo[3.2.1]oct-3-endo-yl}benzene-1,4-dicarboxamide] | < 0.5
27 | Cc1cc(C(=O)N[C@H]2C[C@H]3CC[C@@H](C2)N3c2ccc(C(=O)NC3CCN(C(C)C)CC3)cn2)c(C)cc1C(N)=O [2,5-dimethy˜-N-{8-[5-({[1-(1 methylethyl)piperidin-4-yl]amino}carbonyl)pyridin-2-yl]-8-azabicyclo[3.2.1]oct-3-endo-yl}benzene-1,4-dicarboxamide] | 0.5 to 0.999
28 | Cc1cc(C(N)=O)cc(C)c1C(=O)N[C@H]1C[C@H]2CC[C@@H](C1)N2c1ccc(C(=O)NCc2ccccc2)cn1 [2,6-dimethyl-N1-[8-(5-{[(phenylmethyl)amino]carbonyl}pyridin-2-yl)-8-azabicyclo[3.2.1]oct-3-endo-yl]benzene-1,4-dicarboxamide] | 0.5 to 0.999
29 | CC(=O)Nc1cc(C(=O)N[C@H]2C[C@H]3CC[C@@H](C2)N3c2ccc(C(N)=O)cn2)ccc1C(N)=O [2-(acetylamino)-N4-{8-[5-(aminocarbonyl)pyridin-2-yl]-8-azabicyclo[3.2.1]oct-3-endo-yl}benzene-1,4-dicarboxamide] | 1 to 2
30 | CCCCNc1cc(C(=O)N[C@H]2C[C@H]3CC[C@@H](C2)N3c2ccc(C(=O)C3CC3)cn2)ccc1C(N)=O [2-(butylamino)-N4-{8-[5-(cyclopropylcarbonyl)pyridin-2-yl]-8-azabicyclo[3.2.1]oct-3-endo-yl}benzene-1,4-dicarboxamide] | < 0.5
31 | C[C@H](NC(=O)c1ccc(N2C3CCC2CC(NC(=O)c2ccc(C(N)=O)c(NC4CCC4)c2)C3)nc1)c1ccc(N2CCN(C)CC2)cc1 (stereo partly drawn) [2-(cyclobutylamino)-N4-(8-{5-[({(1S) 1-[4-(4-methylpiperazin-1-yl)phenyl]ethyl}amino)carbonyl]pyridin-2-yl}-8-azabicyclo[3.2.1]oct-3-endo-yl)benzene-1,4-dicarboxamide] | < 0.5
32 | C[C@H](NC(=O)c1ccc(N2C3CCC2CC(NC(=O)c2ccc(C(N)=O)c(OC4CCC4)c2)C3)nc1)c1ccc(N2CCN(C)CC2)cc1 (stereo partly drawn) [2-(cyclobutyloxy)-N4-(8-{5-[({(1S)-1-[4-(4-methylpiperazin-1-yl)phenyl]ethyl}amino)carbonyl]pyridin-2-yl}-8-azabicyclo[3.2.1]oct-3-endo-yl)benzene-1,4-dicarboxamide] | 0.5 to 0.999
33 | COc1cc(C(=O)NC2CC3CCC(C2)N3c2ccc(C(=O)N[C@@H](C)c3ccc(N4CCN(C)CC4)cc3)cn2)ccc1C(N)=O (stereo partly drawn) [2-(methyloxy)-N4-(8-{5-[({(1S)-1-[4-(4-methylpiperazin-1-yl)phenyl]ethyl}amino)carbonyl]pyridin-2-yl}-8-azabicyclo[3.2.1]oct-3-endo-yl)benzene-1,4-dicarboxamide] | < 0.5
34 | CCC(CC)Nc1cc(C(=O)NC2CC3CCC(C2)N3c2ccc(C(=O)N[C@@H]3CCNC3)cn2)ccc1C(N)=O (stereo partly drawn) [2-[(1-ethylpropyl)amino]-N4-[8-(5-{[(3R)-pyrrolidin-3-ylamino]carbonyl}pyridin-2-yl)-8-azabicyclo[3.2.1]oct-3-endo-yl]benzene-1,4-dicarboxamide] | < 0.5
35 | CCC(CC)Nc1cc(C(=O)NC2CC3CCC(C2)N3c2ccc(C(=O)N[C@H]3CCCNC3)cn2)ccc1C(N)=O (stereo partly drawn) [2-[(1-ethylpropyl)amino]-N4-[8-(5-{[(3S)-piperidin-3-ylamino]carbonyl}pyridin-2-yl)-8-azabicyclo[3.2.1]oct-3-endo-yl]benzene-1,4-dicarboxamide] | < 0.5
